According to paper PMC10254444, “Targeting Myeloperoxidase Activity and Neutrophil ROS Production to Modulate Redox Process: Effect of Ellagic Acid and Analogues” (Molecules, 2023):

Experiments:
[1] = ABTS radical cation assay
Experimental: The ABTS assay was based on the method described by Re et al.. For the generation of ABTS^•+ radicals, sodium persulfate (2.45 mM) aqueous solution was mixed with ABTS (7 mM) and incubated overnight in the dark to obtain a dark-colored solution. Stock solution of ABTS^•+ was then diluted by adding pure methanol (100%) to obtain an absorbance of 0.70 (±0.02) at 734 nm at 30 °C. To obtain more repetition, the ABTS assay was performed using a microplate reader (ThermoLabsystem, Finland). An aliquot of 2 µL of the tested compound (EA or analogue) was added to 198 µL of ABTS^•+, and the decrease in absorbance was monitored at 740 nm after 30 min [32]. During this reaction, the blue-green ABTS radical cation is converted back into its colorless neutral form in the presence of the potential antioxidant molecule. A control consisted of 2 µL of DMSO in 198 µL of ABTS^•+ solution. The reducing capacity was determined according to the formula:% inhibition = (Acontrol − ASample) × 100/AControl(1)

[2] = target: T1, Horseradish peroxidase (HRP) (Armoracia rusticana, UniProt P00433); assay: HRP-catalyzed oxidation of L012 (chemiluminescence); type: biochemical
T1 construct: purchased Merck (Darmstadt, Germany)
T1 sequence (P00433 31-338 limits assumed): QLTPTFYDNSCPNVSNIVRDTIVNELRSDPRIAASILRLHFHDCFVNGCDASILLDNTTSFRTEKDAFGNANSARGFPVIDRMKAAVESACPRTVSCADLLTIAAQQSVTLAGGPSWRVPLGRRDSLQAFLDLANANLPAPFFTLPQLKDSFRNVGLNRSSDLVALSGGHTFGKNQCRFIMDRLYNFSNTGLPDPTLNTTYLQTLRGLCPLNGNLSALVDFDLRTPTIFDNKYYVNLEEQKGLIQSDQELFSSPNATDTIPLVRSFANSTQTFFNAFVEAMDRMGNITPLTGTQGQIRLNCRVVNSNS
Experimental: […] (HRP) reacts with hydrogen peroxide (H2O2), yielding “compound I (HRP^+.-Fe (IV=O))”, which is a reactive intermediate of HRP that is able to oxidize any potential reducing agent. Briefly, 2 μL of compound or reference molecule (ellagic acid) were incubated in phosphate buffer at pH 7.4 (153 μL, 50 mM) containing 5 μL HRP (100 µg/L), 20 μL L0-12 (10^−3 M), and 20 μL H2O2 (1 mM), and the chemiluminescence was immediately measured using a Fluoroskan Ascent 96-plate reader (ThermoLabsystem, Finland) at 37 °C for 30 min [32, 34]. The analysis was conducted in a 96-well microtiter plate. All the assays were performed in triplicate and repeated at least twice (N = 2; n = 6). The relative activity in terms of inhibition percentage of the tested compound or reference (ellagic acid) was compared to a control in the presence of DMSO taken as a solvent. The inhibition percentage was calculated using a similar formula (Equation (1)) as described above.

[3] = target: T2, human myeloperoxidase (MPO) (Homo sapiens, UniProt P05164); assay: MPO peroxidase activity, classical assay (Amplex Red); type: biochemical
T2 construct: purchased Calbiochem Millipore
T2 sequence (P05164 49-745): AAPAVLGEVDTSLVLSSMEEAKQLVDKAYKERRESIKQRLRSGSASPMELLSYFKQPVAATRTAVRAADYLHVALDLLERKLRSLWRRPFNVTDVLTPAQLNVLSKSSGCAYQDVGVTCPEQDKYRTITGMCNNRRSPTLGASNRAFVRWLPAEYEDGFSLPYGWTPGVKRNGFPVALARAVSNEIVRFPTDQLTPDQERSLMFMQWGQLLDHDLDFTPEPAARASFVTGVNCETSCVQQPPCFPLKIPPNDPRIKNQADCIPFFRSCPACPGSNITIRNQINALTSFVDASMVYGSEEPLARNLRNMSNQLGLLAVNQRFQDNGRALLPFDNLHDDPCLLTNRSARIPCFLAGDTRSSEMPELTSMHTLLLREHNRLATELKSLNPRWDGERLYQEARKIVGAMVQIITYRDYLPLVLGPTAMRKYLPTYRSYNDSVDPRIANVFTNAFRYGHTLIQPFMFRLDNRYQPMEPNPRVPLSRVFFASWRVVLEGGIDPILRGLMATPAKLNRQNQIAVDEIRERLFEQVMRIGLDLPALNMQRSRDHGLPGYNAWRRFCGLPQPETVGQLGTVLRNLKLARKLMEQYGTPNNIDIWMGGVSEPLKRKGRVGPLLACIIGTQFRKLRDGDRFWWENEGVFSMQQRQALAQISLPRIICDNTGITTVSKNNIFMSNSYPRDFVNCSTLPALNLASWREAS
Experimental: Measurement of the peroxidase activity of MPO was performed by a classical enzymatic assay and by SIEFED assay as described by Nyssen et al.. The MPO solution was prepared with purified human MPO in dilution buffer (PBS 20 mM at pH 7.4 with 5 g/L BSA and 0.1% Tween-20). The solutions of EA or analogue, at final concentrations ranging from 10^−8 M to 10^−5 M, were incubated for 10 min with human MPO at a final concentration of 5 mU/mL before further use. The revelation of MPO activity was performed by monitoring the enzyme-catalyzed oxidation of Amplex Red in the presence of H2O2 (10 μM) and nitrite (4.5 mM) in phosphate buffer at pH 7.4.
After incubation, mixtures containing 100 μL of EA/analogue or vehicle (DMSO) and MPO were loaded into wells of microtiter plates (transparent), and the peroxidase activity was measured by adding 10 μL sodium nitrite solution (4.5 mM, final concentration) and 100 μL of the reactional solution containing 10 µM H2O2 and 40 µM Amplex® Red (AR) in phosphate buffer (50 mM) at pH 7.4. The oxidation of AR into the fluorescent resorufin adduct (λexcitation = 544 nm; λemission = 590 nm) was monitored for 30 min at 37 °C with a fluorescent plate reader (Fluoroskan Ascent, Fisher Scientific, Hampton, NH, USA). To eliminate the possibility of the artifact reactions that might arise from MPO activity or its natural substrate (H2O2), the direct reaction of ellagic acid or an analogue with H2O2 was performed in phosphate buffer (PBS) without the addition of human MPO.

CN(C)C(=O)Oc1cc2c(=O)oc3c(OC(=O)N(C)C)c(OC(=O)N(C)C)cc4c(=O)oc(c1OC(=O)N(C)C)c2c34 [compound 6, Sevellagic acid]
ABTS activity (in words) [1]: no significant activity | HRP inhibiting activity (in words) [2]: lack of effect | MPO inhibition, classical assay (in words) [3]: lack of effect

CCOC1Oc2cc(C(=O)OC)cc(O)c2O1 (centres unmarked) [compound 11, methyl 2-ethoxy-7-hydroxybenzo[d][1,3]dioxole-5-carboxylate]
IC50 [1]: 6.56 ± 0.37 µM | IC50 [2]: 3.55 ± 0.37 µM
